Laboratory results taken from patent US20240239854A1, “ANTIMICROBIAL PEPTIDES AND MODIFICATIONS THEREOF” (Donald Danforth Plant Science Center, priority 2022, published 2024).
Values after ≈ are worked out from the molar mass of the structure shown. Like-named read-outs stand apart in the source and are kept apart here. Positions of bridges follow the written chain, without caps; N, C: chain ends. Residues, ends and D or L forms follow the SMILES beside them. No end group written: not given here.

Columns and labels:
B. cinerea [1] = assay: Semi-in planta drop inoculation assay on detached leaves of N. benthamiana, gray mold (Example 4); assay type: in vivo; details: for Reduction of gray mold symptoms at 1.5 μM: peptide 1.5 μM; for Reduction of gray mold disease symptoms (lesion sizes): peptide 1.5, 3 and 6 μM, 48 h after inoculation
Botrytis cinerea T-4 = details: for MIC (μM) SFM: Table 18, SFM; for MIC (μM) (SFM + 2 mM CaCl2): Table 18, SFM + 2 mM CaCl2; for MIC (μM) (SFM + 100 mM KCl): Table 18, SFM + 100 mM KCl; for MIC (μM) (SFM + 100 mM NaCl): Table 18, SFM + 100 mM NaCl
B. cinerea [2] = tested on: B. cinerea
F. oxysporum = assay: Antifungal MIC assay in SFM culture media (Example 1); assay type: cell-based
P. capsici = assay: Antifungal MIC assay in SFM culture media (Example 1); assay type: cell-based; details: in vitro, low cationic conditions
[3] = tested on: Colletotrichum gloeosporioides; assay: 96-well plate antifungal MIC, resazurin cell viability (Example 4); assay type: cell-based; details: Table 19; unit not given, peptide concentrations in μM
Alternaria alternata = assay: as above; assay type: cell-based; details: Table 19; unit not given, peptide concentrations in μM
Cercospora sojina = assay: as above; assay type: cell-based; details: Table 19; unit not given, peptide concentrations in μM
[4] = B. cinerea, 100 mM NaCl or 100 mM KCl

Row | Compound | MIC (μM) SFM (Botrytis cinerea T-4) [µM] | MIC (μM) (SFM + 2 mM CaCl2) (Botrytis cinerea T-4) [µM] | MIC (μM) (SFM + 100 mM KCl) (Botrytis cinerea T-4) [µM] | MIC (μM) (SFM + 100 mM NaCl) (Botrytis cinerea T-4) [µM] | In vitro antifungal activity (MIC) Colletotrichum gloeosporioides [3] | In vitro antifungal activity (MIC) Alternaria alternata (Alternaria alternata) | In vitro antifungal activity (MIC) Cercospora sojina (Cercospora sojina) | other results
1 | CC[C@H](C)[C@@H]1NC(=O)[C@H](CCCNC(=N)N)NC(=O)[C@@H](NC(=O)[C@H](CCCNC(=N)N)NC(=O)CNC(=O)[C@@H](N)CO)CSSC[C@@H](C(N)=O)NC(=O)[C@H](CC(N)=O)NC(=O)[C@H](CCCCN)NC(=O)[C@H]([C@@H](C)O)NC(=O)[C@H](Cc2c[nH]c3ccccc23)NC(=O)[C@H](Cc2ccccc2)NC(=O)[C@H](Cc2c[nH]c3ccccc23)NC(=O)[C@H](CCCNC(=N)N)NC(=O)[C@H](Cc2ccccc2)NC(=O)[C@H](CC(C)C)NC1=O [GMA1C_V2] (H-SGRCRILFRWFWTKNC-NH2; disulfide 4-16; N-terminus assumed) | 1.5 to 3 | 3 | >12 | 3 | – | – | – | Reduction of gray mold symptoms at 1.5 μM (B. cinerea [1]; drop inoculation assay): more effective than GMA1C_V1; Reduction of gray mold symptoms at 3 and 6 μM (B. cinerea [1]; drop inoculation assay, peptide 3 μM and 6 μM): completely abrogated gray mold symptoms
2 | C[C@@H](O)[C@H](NC(=O)[C@H](CS)NC(=O)[C@H](Cc1ccccc1)NC(=O)[C@H](CS)NC(=O)[C@H](CCCNC(=N)N)NC(=O)[C@H](CCCNC(=N)N)NC(=O)[C@H](CCCNC(=N)N)NC(=O)[C@H](Cc1ccccc1)NC(=O)CNC(=O)[C@H](CCCNC(=N)N)NC(=O)[C@H](CS)NC(=O)[C@H](CCCNC(=N)N)NC(=O)CNC(=O)CN)C(=O)N[C@H](C(=O)N[C@@H](Cc1c[nH]cn1)C(=O)N[C@@H](CS)C(N)=O)[C@@H](C)O [GMA4C_AC] (H-GGRCRGFRRRCFCTTHC-NH2; N-terminus assumed) | – | – | – | – | – | – | – | Retention of antifungal activity in presence of cations (B. cinerea [2]; [4]): retain their antifungal activity; SFM + 2 mM CaCl2 MIC (B. cinerea [2]; Table 4, B. cinerea): >6 (a few μM; SFM + 2 mM CaCl2 MIC (B. cinerea [2]; Table 10, values repeat Table 4 (B. cinerea)): >6 (a μM; F. oxysporum MIC (F. oxysporum; Table 2, SFM culture media): 6 μuM; F. graminearum MIC (F. graminearum): 3 µM; MIC (μM) Fusarium graminearum (F. graminearum): 3 µM (≈ 6.05 µg/mL); MIC Values (μM) against F. graminearum (F. graminearum): 6 µM (≈ 12.1 µg/mL)
3 | N=C(N)NCCC[C@H](NC(=O)CNC(=O)[C@@H](N)Cc1ccccc1)C(=O)N[C@@H](CS)C(=O)N[C@@H](CCCNC(=N)N)C(=O)NCC(=O)N[C@@H](Cc1ccccc1)C(=O)N[C@@H](CCCNC(=N)N)C(=O)N[C@@H](CCCNC(=N)N)C(=O)N[C@@H](CCCNC(=N)N)C(=O)N[C@@H](CS)C(=O)N[C@@H](Cc1ccccc1)C(=O)N[C@@H](CS)C(=O)N[C@@H](Cc1c[nH]c2ccccc12)C(=O)N[C@@H](CCCNC(=N)N)C(=O)N[C@@H](Cc1c[nH]c2ccccc12)C(=O)N[C@@H](CS)C(N)=O [GMA4C_V4A] (H-FGRCRGFRRRCFCWRWC-NH2; N-terminus assumed) | – | – | – | – | – | – | – | Potency relative to GMA4C_AC in presence of cations (B. cinerea [2]; [4]): 2 fold; Fungal growth inhibition at 6 μM (B. cinerea [2]; B. cinerea, in presence of 2 mM CaCl2, peptide 6 μM): inhibit fungal growth; Antifungal activity relative to the wild-type GMA4C_AC control (B. cinerea [2]; in vitro, low cationic conditions, B. cinerea): equivalent; Antifungal activity relative to the wild-type GMA4C_AC control (P. capsici): equivalent; Antifungal activity relative to the wild-type GMA4C_AC control (F. oxysporum; in vitro, low cationic conditions, F. oxysporum): equivalent; Antifungal activity relative to the wild-type GMA4C_AC control (F. graminearum; in vitro, low cationic conditions, F. graminearum): equivalent
4 | CC[C@H](C)[C@@H]1NC(=O)[C@H](CCCNC(=N)N)NC(=O)[C@H]([C@@H](C)O)NC(=O)[C@H](Cc2ccccc2)NC(=O)[C@H](Cc2c[nH]c3ccccc23)NC(=O)[C@H](Cc2ccccc2)NC(=O)[C@H](CCCNC(=N)N)NC(=O)[C@H](CCCNC(=N)N)NC(=O)[C@H](CC(C)C)NC(=O)[C@H](Cc2ccccc2)NC(=O)CNC(=O)[C@H](CCCCN)NC(=O)[C@@H](NC(=O)[C@H](CCCNC(=N)N)NC(=O)CNC(=O)CN)CSSC[C@@H](C(N)=O)NC1=O [GMA4C_V9] (H-GGRCKGFLRRFWFTRIC-NH2; disulfide 4-17; N-terminus assumed) | 3 (≈ 6.3 µg/mL) | 12 | 6 to 12 | 3 | >12 | >12 | 6 | Reduction of gray mold disease symptoms (lesion sizes) (B. cinerea [1]; detached N. benthamiana leaves): effective in reducing gray mold disease symptoms
5 | CC[C@H](C)[C@@H]1NC(=O)[C@H](CCCNC(=N)N)NC(=O)[C@H]([C@@H](C)O)NC(=O)[C@H](Cc2c[nH]c3ccccc23)NC(=O)[C@H](Cc2ccc(O)cc2)NC(=O)[C@H](Cc2c[nH]c3ccccc23)NC(=O)[C@H](CCCNC(=N)N)NC(=O)[C@H](CCCNC(=N)N)NC(=O)[C@H](CCCNC(=N)N)NC(=O)[C@H](Cc2ccccc2)NC(=O)CNC(=O)[C@H](CCCCN)NC(=O)[C@@H](NC(=O)[C@H](CCCNC(=N)N)NC(=O)CNC(=O)CN)CSSC[C@@H](C(N)=O)NC1=O [GMA4C_V10] (H-GGRCKGFRRRWYWTRIC-NH2; disulfide 4-17; N-terminus assumed) | 3 (≈ 6.6 µg/mL) | 3 | 3 to 6 | 3 | >12 | >12 | 6 | Reduction of gray mold symptoms at low concentrations (B. cinerea [1]; detached N. benthamiana leaves, peptide 1.5 μM and 3 μM): more effective in reducing the symptoms of gray mold than GMA4C_V9; Reduction of gray mold disease symptoms (lesion sizes) (B. cinerea [1]; detached N. benthamiana leaves): effective in reducing gray mold disease symptoms
6 | C[C@H](NC(=O)CN)C(=O)N[C@H]1CSSC[C@@H](C(N)=O)NC(=O)[C@H](CCCCN)NC(=O)[C@H](CCCCN)NC(=O)[C@H](Cc2ccc(O)cc2)NC(=O)[C@H](Cc2c[nH]c3ccccc23)NC(=O)[C@H](Cc2ccccc2)NC(=O)[C@H](Cc2c[nH]c3ccccc23)NC(=O)[C@H](C)NC(=O)[C@H](Cc2ccccc2)NC(=O)CNC(=O)[C@H](Cc2ccccc2)NC(=O)CNC(=O)[C@H](CCC(N)=O)NC(=O)[C@H](CCCNC(=N)N)NC(=O)[C@H](Cc2c[nH]cn2)NC1=O [GMA5CA_V3] (H-GACHRQGFGFAWFWYKKC-NH2; disulfide 3-18; N-terminus assumed) | 3 (≈ 6.57 µg/mL) | >12 | >12 | >12 | >12 | 3 | 6 | –
7 | C[C@H](NC(=O)CN)C(=O)N[C@H]1CSSC[C@@H](C(N)=O)NC(=O)[C@H](CCCCN)NC(=O)[C@H](CCCCN)NC(=O)[C@H](Cc2ccc(O)cc2)NC(=O)[C@H](Cc2ccccc2)NC(=O)[C@H](Cc2ccccc2)NC(=O)[C@H](Cc2ccccc2)NC(=O)[C@H](C)NC(=O)[C@H](Cc2ccccc2)NC(=O)CNC(=O)[C@H](Cc2ccccc2)NC(=O)CNC(=O)[C@H](CCC(N)=O)NC(=O)[C@H](CCCNC(=N)N)NC(=O)[C@H](Cc2c[nH]cn2)NC1=O [GMA5CA_V4] (H-GACHRQGFGFAFFFYKKC-NH2; disulfide 3-18; N-terminus assumed) | 3 (≈ 6.33 µg/mL) | >12 | >12 | >12 | >12 | 3 | 6 | –
8 | C[C@H](NC(=O)CN)C(=O)N[C@@H](CS)C(=O)N[C@@H](Cc1c[nH]cn1)C(=O)N[C@@H](CCCNC(=N)N)C(=O)N[C@@H](CCC(N)=O)C(=O)NCC(=O)N[C@@H](Cc1ccccc1)C(=O)NCC(=O)N[C@@H](Cc1ccccc1)C(=O)N[C@@H](C)C(=O)N[C@@H](CS)C(=O)N[C@@H](Cc1ccccc1)C(=O)N[C@@H](CS)C(=O)N[C@@H](Cc1ccc(O)cc1)C(=O)N[C@@H](CCCCN)C(=O)N[C@@H](CCCCN)C(=O)N[C@@H](CS)C(N)=O [GMA5CA_WT] (H-GACHRQGFGFACFCYKKC-NH2) | – | – | – | – | >12 | 6 | 12 | –
9 | CC(C)C[C@@H]1NC(=O)[C@@H](NC(=O)[C@H](C)NC(=O)CN)CSSC[C@@H](C(=O)N[C@@H](Cc2ccc(O)cc2)C(N)=O)NC(=O)[C@H](Cc2c[nH]cn2)NC(=O)[C@H](CCCNC(=N)N)NC(=O)[C@H](Cc2ccc(O)cc2)NC(=O)[C@H](Cc2ccc(O)cc2)NC(=O)[C@H](Cc2c[nH]c3ccccc23)NC(=O)[C@H](Cc2ccccc2)NC(=O)[C@H](Cc2c[nH]c3ccccc23)NC(=O)CNC(=O)[C@H](Cc2ccc(O)cc2)NC(=O)[C@H](Cc2c[nH]cn2)NC(=O)[C@H](CCCCN)NC(=O)[C@H](CO)NC(=O)[C@H](Cc2c[nH]cn2)NC(=O)[C@H](CCCNC(=N)N)NC(=O)[C@H](CC(N)=O)NC(=O)[C@H](CCCCN)NC1=O [GMAOe1C_V3] (H-GACLKNRHSKHYGWFWYYRHCY-NH2; disulfide 3-21; N-terminus assumed) | 1.5 (≈ 4.31 µg/mL) | 3 to 6 | 6 to 12 | 2 to 3 | – | – | – | Reduction of gray mold symptoms at 1.5 μM (B. cinerea [1]; drop inoculation assay): more effective than GMAOe1C_V4 or GMAOe1C_WT
10 | GRCRGFRRRCFCTTHC-NH2 (cysteine pairing not given here) [GMA4AC] | – | – | – | – | >12 | >12 | >12 | –
